Test results as given in patent US4459290A, “C-23-Modified derivatives of OMT, pharmaceutical compositions and method of use” (priority 1982, dated 1984).
Converted amounts (≈) assume the structure as drawn. Read-outs that look alike come from different tables or passages of the source.

Legend:
[1] = test system: Streptococcus pyogenes C203; assay: ED50 in mice experimentally infected with S. pyogenes C203 (Table VIII); type: in vivo
Protocol: The C-23 modified derivatives of OMT of this invention have shown in vivo antimicrobial activity against experimental infections. When two doses of test compound were administered to mice experimentally infected with a gram-positive bacterium, S. pyogenes C203, the activity observed was measured as an ED50 value [effective dose in mg/kg to protect 50% of the test animals: see Warren Wick, et al., J. Bacteriol. 81, 233-235 (1961)].

[2] = test system: Haemophilus influenzae Holt; assay: MIC, standard agar-dilution assay (Table V); type: cell-based; details: Haemophilus influenzae
Protocol: (§1) The MIC's in Tables V and VI were determined by standard agar-dilution assays. The MIC's in Table VII were obtained using a conventional broth-dilution microtiter test.

[3] = test system: Haemophilus influenzae R252; assay: MIC, standard agar-dilution assay (Table V); type: cell-based; details: Haemophilus influenzae, R252
Protocol: as §1

[4] = test system: Escherichia coli TEM; assay: MIC, standard agar-dilution assay (Table V); type: cell-based; details: Escherichia coli; E. coli TEM; agar dilution; read-out: MIC
Protocol: as §1

[5] = test system: Streptococcus pyogenes C203; assay: MIC, standard agar-dilution assay (Table V); type: cell-based; details: Streptococcus pyogenes, C203
Protocol: as §1

[6] = test system: Streptococcus pneumoniae Park I; assay: microbe, parasite or virus in culture; type: cell-based; details: Streptococcus pneumoniae
Protocol: (§2) Especially noteworthy is the improved activity against gram-negative bacteria for several derivatives when compared to the activity of OMT. […] The MIC's in Tables V and VI were determined by standard agar-dilution assays. The MIC's in Table VII were obtained using a conventional broth-dilution microtiter test.

[7] = test system: Mycoplasma synoviae; assay: MIC, broth-dilution microtiter test (Table VII); type: cell-based; details: Mycoplasmopsis synoviae
Protocol: as §2

[8] = test system: Pasteurella multocida 22A; assay: MIC, broth-dilution microtiter test (Table VII); type: cell-based; details: Pasteurella multocida, 22A
Protocol: as §2

[9] = test system: Pasteurella multocida 68C; assay: MIC, broth-dilution microtiter test (Table VII); type: cell-based; details: Pasteurella multocida, 68C
Protocol: as §2

[10] = test system: Pasteurella multocida 17E; assay: MIC, broth-dilution microtiter test (Table VII); type: cell-based; details: Pasteurella multocida, 17E
Protocol: as §2

[11] = test system: Pasteurella hemolytica 22C; assay: MIC, broth-dilution microtiter test (Table VII); type: cell-based; details: Pasteurella, P. hemolytica 22C, read-out: MIC
Protocol: as §2

[12] = test system: Pasteurella multocida 60A; assay: MIC, broth-dilution microtiter test (Table VII); type: cell-based; details: Pasteurella multocida, 60A
Protocol: as §2

[13] = test system: Mycoplasma hyorhinis; assay: MIC, broth-dilution microtiter test (Table VII); type: cell-based; details: M. hyorhinis; broth-dilution microtiter; read-out: MIC
Protocol: as §2

[14] = test system: Pasteurella hemolytica 41D; assay: MIC, broth-dilution microtiter test (Table VII); type: cell-based; details: Pasteurella, P. hemolytica 41D, read-out: MIC
Protocol: as §2

[15] = test system: Mycoplasma gallisepticum; assay: MIC, broth-dilution microtiter test (Table VII); type: cell-based; details: Mycoplasmoides gallisepticum
Protocol: as §2

[16] = test system: Pasteurella hemolytica 23C; assay: MIC, broth-dilution microtiter test (Table VII); type: cell-based; details: Pasteurella, P. hemolytica 23C, read-out: MIC
Protocol: as §2

[17] = test system: Streptococcus sp. 80; assay: MIC, broth-dilution microtiter test (Table VII); type: cell-based; details: Streptococcus, SP.80
Protocol: as §2

[18] = test system: Staphylococcus aureus; assay: MIC, broth-dilution microtiter test (Table VII); type: cell-based; details: Staphylococcus aureus
Protocol: as §2

[19] = test system: Pasteurella multocida 40G; assay: MIC, broth-dilution microtiter test (Table VII); type: cell-based; details: Pasteurella multocida, 40G
Protocol: as §2

[20] = test system: Pseudomonas aeruginosa X239; assay: MIC, standard agar-dilution assay (Table VI); type: cell-based; details: P. aeruginosa X239, agar dilution, read-out: MIC
Protocol: as §2

[21] = test system: Klebsiella pneumoniae X68; assay: MIC, standard agar-dilution assay (Table VI); type: cell-based; details: K. pneumoniae X68, agar dilution, read-out: MIC
Protocol: as §2

[22] = test system: Enterobacter aerogenes EB17; assay: MIC, standard agar-dilution assay (Table VI); type: cell-based; details: Klebsiella aerogenes; E. aerogenes EB17; agar dilution; read-out: MIC
Protocol: as §2

[23] = test system: Salmonella typhi 1335; assay: MIC, standard agar-dilution assay (Table VI); type: cell-based; details: Salmonella enterica
Protocol: as §2

[24] = test system: Proteus morganii PR15; assay: MIC, standard agar-dilution assay (Table VI); type: cell-based; details: Morganella morganii; P. morganii PR15; agar dilution; read-out: MIC
Protocol: as §2

[25] = test system: Pseudomonas aeruginosa X528; assay: MIC, standard agar-dilution assay (Table VI); type: cell-based; details: X528
Protocol: as §2

[26] = test system: Pseudomonas aeruginosa Ps18; assay: MIC, standard agar-dilution assay (Table VI); type: cell-based; details: P. aeruginosa Ps18, agar dilution, read-out: MIC
Protocol: as §2

[27] = test system: Enterobacter cloacae EB5; assay: MIC, standard agar-dilution assay (Table VI); type: cell-based; details: E. cloacae EB5, agar dilution, read-out: MIC
Protocol: as §2

[28] = test system: Enterobacter aerogenes C32; assay: MIC, standard agar-dilution assay (Table VI); type: cell-based; details: Klebsiella aerogenes; E. aerogenes C32; agar dilution; read-out: MIC
Protocol: as §2

[29] = test system: Serratia marcescens SE3; assay: MIC, standard agar-dilution assay (Table VI); type: cell-based; details: S. marcescens SE3, agar dilution, read-out: MIC
Protocol: as §2

[30] = test system: Proteus rettgeri C24; assay: MIC, standard agar-dilution assay (Table VI); type: cell-based; details: Providencia rettgeri, P. rettgeri C24
Protocol: as §2

[31] = test system: Salmonella heidelberg X514; assay: MIC, standard agar-dilution assay (Table VI); type: cell-based; details: Salmonella enterica; S. heidelberg X514; agar dilution; read-out: MIC
Protocol: as §2

[32] = test system: Citrobacter freundii CF17; assay: MIC, standard agar-dilution assay (Table VI); type: cell-based; details: C. freundii CF17, agar dilution, read-out: MIC
Protocol: as §2

[33] = test system: Serratia marcescens X99; assay: MIC, standard agar-dilution assay (Table VI); type: cell-based; details: S. marcescens X99, agar dilution, read-out: MIC
Protocol: as §2

[34] = test system: Proteus inconstans PR33; assay: MIC, standard agar-dilution assay (Table VI); type: cell-based; details: Providencia alcalifaciens; P. inconstans PR33; agar dilution; read-out: MIC
Protocol: as §2

[35] = test system: Proteus rettgeri PR7; assay: MIC, standard agar-dilution assay (Table VI); type: cell-based; details: Providencia rettgeri; P. rettgeri PR7; agar dilution; read-out: MIC
Protocol: as §2

[36] = test system: Staphylococcus aureus V41; assay: MIC, standard agar-dilution assay (Table V); type: cell-based; details: Staphylococcus aureus, V41
Protocol: as §2

[37] = test system: Escherichia coli EC14; assay: MIC, standard agar-dilution assay (Table V); type: cell-based; details: Escherichia coli; E. coli EC14; agar dilution; read-out: MIC
Protocol: as §2

[38] = test system: Staphylococcus aureus X400; assay: MIC, standard agar-dilution assay (Table V); type: cell-based; details: Staphylococcus aureus, X400
Protocol: as §2

[39] = test system: Klebsiella pneumoniae X26; assay: MIC, standard agar-dilution assay (Table V); type: cell-based; details: Klebsiella pneumoniae; K. pneumoniae X26; agar dilution; read-out: MIC
Protocol: as §2

[40] = test system: Klebsiella pneumoniae KAE; assay: MIC, standard agar-dilution assay (Table V); type: cell-based; details: Klebsiella pneumoniae; K. pneumoniae KAE; agar dilution; read-out: MIC
Protocol: as §2

[41] = test system: Staphylococcus aureus S13E; assay: MIC, standard agar-dilution assay (Table V); type: cell-based; details: Staphylococcus aureus, S13E
Protocol: as §2

[42] = test system: Streptococcus Group D X66; assay: MIC, standard agar-dilution assay (Table V); type: cell-based
Protocol: as §2

[43] = test system: Staphylococcus epidermidis EPI1; assay: MIC, standard agar-dilution assay (Table V); type: cell-based; details: Staphylococcus epidermidis, EPI1
Protocol: as §2

[44] = test system: Streptococcus Group 9960; assay: MIC, standard agar-dilution assay (Table V); type: cell-based; details: GROUP9960
Protocol: as §2

[45] = test system: Escherichia coli N10; assay: MIC, standard agar-dilution assay (Table V); type: cell-based; details: Escherichia coli; E. coli N10; agar dilution; read-out: MIC
Protocol: as §2

[46] = test system: Staphylococcus epidermidis EPI2; assay: MIC, standard agar-dilution assay (Table V); type: cell-based; details: Staphylococcus epidermidis, EPI2
Protocol: as §2

[47] = test system: Staphylococcus aureus X1.1; assay: MIC, standard agar-dilution assay (Table V); type: cell-based; details: Staphylococcus aureus, X1.1
Protocol: as §2

[48] = test system: Shigella sonnei N9; assay: MIC, standard agar-dilution assay (Table V); type: cell-based
Protocol: as §2

`CCC1OC(=O)CC(O)C(C)C(OC2OC(C)C(O)C(N(C)C)C2O)C(CC=O)CC(C)C(=O)C=CC(C)(OC)C2CC12` (stereo not shown) [Compound 17] gave an ED50 ([1]; C203, po, read-out: ED50, Oral) greater than 100 mg/kg, an ED50 ([1]; C203, sc, read-out: ED50, Subcutaneous) greater than 25 mg/kg and an MIC [2] of 8 µg/mL (≈ 13.1 µM). It also gave an MIC [3] of 8 µg/mL (≈ 13.1 µM), an MIC [4] of 64 µg/mL (≈ 105 µM) and an MIC [5] of 1 µg/mL (≈ 1.63 µM). For the same compound, the MIC [6] was 0.25 µg/mL (≈ 0.409 µM), the MIC [7] was 1.56 µg/mL (≈ 2.55 µM) and the MIC [8] was 6.25 µg/mL (≈ 10.2 µM). The MIC [9] was 6.25 µg/mL (≈ 10.2 µM), the MIC [10] was 6.25 µg/mL (≈ 10.2 µM) and the MIC [11] was 25 µg/mL (≈ 40.9 µM). The MIC [12] was 12.5 µg/mL (≈ 20.4 µM), the MIC [13] was 25 µg/mL (≈ 40.9 µM) and the MIC [14] was 25 µg/mL (≈ 40.9 µM). For the same compound, the MIC [15] was 0.78 µg/mL (≈ 1.27 µM), the MIC [16] was 25 µg/mL (≈ 40.9 µM) and the MIC [17] was 1.56 µg/mL (≈ 2.55 µM). The MIC [18] was 3.12 µg/mL (≈ 5.1 µM), the MIC [19] was 6.25 µg/mL (≈ 10.2 µM) and the MIC [20] was greater than 128 µg/mL. The MIC [21] was greater than 128 µg/mL, the MIC [22] was greater than 128 µg/mL and the MIC [23] was greater than 128 µg/mL. It also gave an MIC [24] greater than 128 µg/mL, an MIC [25] of 64 µg/mL (≈ 105 µM) and an MIC [26] greater than 128 µg/mL. It also gave an MIC [27] greater than 128 µg/mL, an MIC [28] greater than 128 µg/mL and an MIC [29] greater than 128 µg/mL. The MIC [30] was greater than 128 µg/mL, the MIC [31] was greater than 128 µg/mL and the MIC [32] was greater than 128 µg/mL. It also gave an MIC [33] greater than 128 µg/mL, an MIC [34] greater than 128 µg/mL and an MIC [35] greater than 128 µg/mL. It also gave an MIC [36] of 2 µg/mL (≈ 3.27 µM), an MIC [37] greater than 128 µg/mL and an MIC [38] of 2 µg/mL (≈ 3.27 µM). It also gave an MIC [39] of 16 µg/mL (≈ 26.2 µM), an MIC [40] greater than 128 µg/mL and an MIC [41] of 2 µg/mL (≈ 3.27 µM). For the same compound, the MIC [42] was 2 µg/mL (≈ 3.27 µM), the MIC [43] was 2 µg/mL (≈ 3.27 µM) and the MIC [44] was 2 µg/mL (≈ 3.27 µM). It also gave an MIC [45] greater than 128 µg/mL, an MIC [46] of 2 µg/mL (≈ 3.27 µM) and an MIC [47] of 2 µg/mL (≈ 3.27 µM). The MIC [48] was greater than 128 µg/mL.
